Tests used:
[1] = 298.15 K; 101.33 kPa; Liquid; Vibrating tube method
[2] = xn = mol fraction of the nth substance listed; details: 101 kPa, Liquid, Vibrating tube method

Cc1ccccc1C [1,2-dimethylbenzene]
Details	mass density [kg/m3]
[1]	875.72

Cc1cccc(C)c1 [1,3-dimethylbenzene]
Details	mass density [kg/m3]
[1]	859.86

Cc1ccc(C)cc1 [1,4-dimethylbenzene]
Details	mass density [kg/m3]
[1]	856.67

C[SiH]1O[SiH](C)O[SiH](C)O[SiH](C)O1 (stereo unspecified) [2,4,6,8-tetramethyl-1,3,5,7,2,4,6,8-tetroxatetrasilocane]
Details	mass density [kg/m3]
[1]	992.39

C[SiH]1O[SiH](C)O[SiH](C)O[SiH](C)O1 (stereo unspecified) [2,4,6,8-tetramethyl-1,3,5,7,2,4,6,8-tetroxatetrasilocane] + Cc1ccc(C)cc1
mass density [kg/m3], [2]
Details	288.15 K	298.15 K	308.15 K
x1 = 0.0499	879.33	870.42	861.48
x1 = 0.0999	892.03	882.82	873.61
x1 = 0.1501	903.51	893.96	884.48
x1 = 0.1999	913.85	904.11	894.33
x1 = 0.25	923.25	913.34	903.35
x1 = 0.2999	931.83	921.7	911.4
x1 = 0.3501	939.62	929.23	918.8
x1 = 0.4	946.73	936.18	925.53
x1 = 0.4502	953.29	942.54	931.67
x1 = 0.4997	959.21	948.26	937.19
x1 = 0.5493	964.63	953.54	942.24
x1 = 0.6001	969.79	958.45	947.03
x1 = 0.6501	974.4	962.93	951.37
x1 = 0.7002	978.67	967.02	955.31
x1 = 0.7472	982.39	970.62	958.76
x1 = 0.7998	986.27	974.32	962.3
x1 = 0.8492	989.69	977.56	965.38
x1 = 0.9002	992.92	980.61	968.28

C[SiH]1O[SiH](C)O[SiH](C)O[SiH](C)O1 (stereo unspecified) [2,4,6,8-tetramethyl-1,3,5,7,2,4,6,8-tetroxatetrasilocane] + Cc1cccc(C)c1
mass density [kg/m3], [2]
Details	288.15 K	298.15 K	308.15 K
x1 = 0.05	882	873.13	864.29
x1 = 0.1001	894.34	885.16	876.06
x1 = 0.15	905.42	896	886.6
x1 = 0.1999	915.45	905.8	896.12
x1 = 0.2498	924.55	914.65	904.73
x1 = 0.2999	932.94	922.8	912.66
x1 = 0.35	940.55	930.19	919.83
x1 = 0.3995	947.41	936.84	926.34
x1 = 0.4504	953.92	943.11	932.41
x1 = 0.5	959.71	948.69	937.79
x1 = 0.55	965.11	953.9	942.81
x1 = 0.5996	970.04	958.65	947.34
x1 = 0.65	974.69	963.1	951.62
x1 = 0.6995	978.87	967.14	955.47
x1 = 0.7495	982.81	970.92	959.07
x1 = 0.7996	986.48	974.42	962.42
x1 = 0.8498	989.84	977.65	965.47
x1 = 0.8994	992.98	980.64	968.32

C[SiH]1O[SiH](C)O[SiH](C)O[SiH](C)O1 (stereo unspecified) [2,4,6,8-tetramethyl-1,3,5,7,2,4,6,8-tetroxatetrasilocane] + Cc1ccccc1
mass density [kg/m3], [2]
Details	288.15 K	298.15 K	308.15 K
x1 = 0.0499	886.6	877.08	867.53
x1 = 0.0999	899.94	890.19	880.4
x1 = 0.15	911.67	901.66	891.68
x1 = 0.2	921.98	911.75	901.57
x1 = 0.25	931.15	920.71	910.33
x1 = 0.3	939.31	928.7	918.15
x1 = 0.3502	946.71	935.91	925.11
x1 = 0.4	953.26	942.25	931.31
x1 = 0.4501	959.23	948.05	936.94
x1 = 0.5004	964.63	953.32	942.01
x1 = 0.5504	969.56	958.11	946.61
x1 = 0.5998	973.98	962.38	950.74
x1 = 0.6497	978.02	966.26	954.47
x1 = 0.6994	981.74	969.83	957.9
x1 = 0.7497	985.15	973.12	961.05
x1 = 0.8	988.34	976.19	963.99
x1 = 0.8494	991.18	978.9	966.61
x1 = 0.8995	993.85	981.45	969.04

C[SiH]1O[SiH](C)O[SiH](C)O[SiH](C)O1 (stereo unspecified) [2,4,6,8-tetramethyl-1,3,5,7,2,4,6,8-tetroxatetrasilocane] + Cc1ccccc1C
mass density [kg/m3], [2]
Details	288.15 K	298.15 K	308.15 K
x1 = 0.0499	896.79	888.17	879.45
x1 = 0.1	908.22	899.3	890.28
x1 = 0.15	918.4	909.22	899.95
x1 = 0.2	927.56	918.11	908.59
x1 = 0.25	935.82	926.11	916.33
x1 = 0.2998	943.2	933.25	923.21
x1 = 0.3501	949.98	939.8	929.53
x1 = 0.3998	956.06	945.66	935.16
x1 = 0.4496	961.56	950.95	940.25
x1 = 0.4998	966.65	955.84	944.92
x1 = 0.5497	971.24	960.22	949.1
x1 = 0.5997	975.45	964.25	952.96
x1 = 0.6496	979.25	967.88	956.36
x1 = 0.7001	982.82	971.27	959.58
x1 = 0.7502	986.05	974.32	962.44
x1 = 0.7998	988.96	977.09	965.04
x1 = 0.848	991.61	979.54	967.33
x1 = 0.9002	994.23	982.02	969.65

C[SiH]1O[SiH](C)O[SiH](C)O[SiH](C)O1 (stereo unspecified) [2,4,6,8-tetramethyl-1,3,5,7,2,4,6,8-tetroxatetrasilocane] + c1ccccc1
mass density [kg/m3], [2]
Details	288.15 K	298.15 K	308.15 K
x1 = 0.0497	898.88	888.24	877.55
x1 = 0.0999	911.74	900.99	890.29
x1 = 0.1499	922.78	911.91	901.26
x1 = 0.1997	932.3	921.32	910.69
x1 = 0.2501	940.72	929.65	918.93
x1 = 0.3	948.04	936.87	926.1
x1 = 0.35	954.56	943.15	932.28
x1 = 0.3999	960.28	948.81	937.73
x1 = 0.4498	965.46	953.89	942.65
x1 = 0.4999	970.05	958.4	947.02
x1 = 0.5498	974.22	962.44	950.92
x1 = 0.5999	978.03	966.16	954.53
x1 = 0.6486	981.36	969.41	957.65
x1 = 0.7001	984.61	972.54	960.64
x1 = 0.7495	987.43	975.28	963.27
x1 = 0.8001	990.04	977.8	965.71
x1 = 0.8499	992.42	980.12	967.91
x1 = 0.8986	994.56	982.19	969.9

c1ccccc1 [benzene]
Details	mass density [kg/m3]
[1]	873.57

Cc1ccccc1 [toluene]
Details	mass density [kg/m3]
[1]	862.23

— the NIST ThermoML archive (doi:10.1021/je2009736)
